The nature of data set [1]: Preliminary pharmacokinetic (PK) analysis, Phase 1 study. The data set is classed as in vivo, human. As to the method: Therefore, a fixed dose is suitable for the dosing of PF-06863135. Based on the encouraging efficacy data and safety data obtained from Part I of Study, a promising RP2D for Part 2A of the study could be a fixed dose equivalent of 1000 μg/kg (i.e., 76 mg) of PF-06863135 either in Q1W or Q2W. A fixed dose equivalent of 600 μg/kg (ie, 44 mg) will likely be used as a priming dose on cycle zero day 1. The initial dose of 44 mg serves as a priming dose and is designed to mitigate the CRS symptoms of the later 76 mg dose. […] Subsequently, the 44 mg (priming) and 76 mg (maintenance) were selected as the single agent RP2D dose. Patient will be administered a single priming dose of 44 mg SC of PF06863135, followed by maintenance dosing of 76 mg Q1W SC or 76 mg Q2W starting 7 days after the single priming dose.

For another data set, the system named is MM.1S. Briefly: Cell surface BCMA expression after GSI, concentration series. The data set is classed as cell-based. The settings on record: 24 hours. How it is done:
(§1) Multiple myeloma cells (MM.1S, OPM2, H929, Molp8, RPMI8226) were seeded in a 96-well U bottom plate at 40,000 cells/well. Cells were incubated for 24 hours in the presence of GSI diluted in RPMI (0.1% DMSO). The following concentrations of the GSI were tested: 1000 nM, 500 nM, 100 nM, 50 nM, 25 nM, 10 nM, 5 nM, 2.5 nM, 1 nM, 0.1 nM, 0.01 nM. 24 hours later cells were collected and washed with PBS+2% FBS, followed by staining with ZombieNIR Viability Dye (Biolegend) at 1 in 500 dilution in PBS at room temperature for 20 minutes. Next, cells were washed with PBS+2% FBS and stained with anti-BCMA PE-labelled antibody (Biolegend) diluted in PBS+2% FBS for 30 minutes at 4° C. Cells were acquired on BD Flow Cytometer and analyzed using FlowJo flow cytometry analysis software. Dead cells were removed from analysis by gating on ZombieNIR negative population. BCMA mean fluorescence intensity (MFI) was plotted against GSI concentration to establish EC50.

The next data set deals with RPMI8226. Described as above. The data set is classed as cell-based. The settings on record: 24 hours. As to the method:
as §1

Data set [2] has as its system Raji. In words: Cell surface BCMA expression after GSI, concentration series, lymphoma cells. The data set is classed as cell-based. The settings on record: 24 hours, ± SD. As to the method:
as §1, with “Lymphoma” for “Multiple myeloma”, “(Raji cell line)” for “(MM.1S, OPM2, H929, Molp8, RPMI8226)”, “RPMI medium” for “RPMI”, “from the” for “from”, “MFI” for “mean fluorescence intensity (MFI)”

Data set [3] relates to Raji. In words: Cell surface BCMA expression after GSI, time course and washout, lymphoma cells. The data set is classed as cell-based. How it is done:
Lymphoma cells (Raji) were seeded in a 6-well plate at 800,000 cells/2 ml/well with GSI diluted at 1 μM in RPMI medium (with 0.1% DMSO). Cells were collected to evaluate cell surface BCMA expression at baseline, and then at 3 hours, 6 hours and 24 hours after addition of the GSI. After 24 hours of incubation with the GSI, cells were washed twice in PBS and re-plated in fresh 6-well plates. […] At the indicated time points, samples were stained with a ZombieNIR Viability dye (Biolegend) for 20 minutes at room temperature at 1 in 500 dilution in PBS, washed with PBS+2% FBS and further stained with anti-BCMA PE-labelled antibody diluted in PBS+2% FBS for 30 minutes at 4° C. Samples were acquired on BD Flow Cytometer and analyzed using FlowJo software. Dead cells were removed from the analysis by gating on ZombieNIR negative population. BCMA mean fluorescence intensity (MFI) was plotted as a histogram.

Take “PF-06863135: heterodimeric humanized full-length bispecific antibody with one BCMA binding arm and one CD3 binding arm”: the “Effect of body weight on PF-06863135 exposure” value in data set [1] is “not a clinically relevant factor”.
As for `CCC[C@H](N[C@H]1CCc2cc(F)cc(F)c2C1)C(=O)Nc1cn(C(C)(C)CNCC(C)(C)C)cn1` [GSI, nirogacestat], the “BCMA (-PE) MFI” value in the data set with MM.1S (GSI 0.01 nM) turned out to be 15589.5; in the data set with MM.1S (GSI 0.1 nM) it was 15775.5; in the data set with MM.1S (GSI 1 nM), 14396; in the data set on MM.1S (GSI 2.5 nM) it was 21412.5; in the data set with MM.1S (GSI 5 nM) it was 28832; with MM.1S (GSI 10 nM) it was 31248. The “BCMA (-PE) MFI” value with MM.1S (GSI 25 nM) turned out to be 37026.5; in the data set on MM.1S (GSI 50 nM), 38111; in the data set with MM.1S (GSI 100 nM), 37582.5; in the data set on MM.1S (GSI 500 nM), 35780; with MM.1S (GSI 1000 nM) it was 35780; in the data set on RPMI8226 (RPMI8226, GSI 0.01 nM) it was 10028. For the same compound, the “BCMA (-PE) MFI” value with RPMI8226 (RPMI8226, GSI 0.1 nM) was 10099; in the data set with RPMI8226 (RPMI8226, GSI 1 nM), 10483.5; in the data set with RPMI8226 (RPMI8226, GSI 2.5 nM), 10226.5; with RPMI8226 (RPMI8226, GSI 5 nM), 10589.5; in the data set on RPMI8226 (RPMI8226, GSI 10 nM) it was 11181.5; with RPMI8226 (RPMI8226, GSI 25 nM), 12617. The “BCMA (-PE) MFI” value was 13190.5 in the data set with RPMI8226 (RPMI8226, GSI 50 nM); 13416 in the data set with RPMI8226 (RPMI8226, GSI 100 nM); 13464.5 with RPMI8226 (RPMI8226, GSI 500 nM); 14362 in the data set with RPMI8226 (RPMI8226, GSI 1000 nM); 1619 in the data set on Raji [3] (GSI 1 μM for 24 h, 3 h post wash); 1822 with Raji [3] (GSI 1 μM for 24 h, 5 h post wash). The “BCMA (-PE) MFI” value stood at 795 in the data set with Raji [3] (GSI 1 μM for 24 h, 24 h post wash); 699 in the data set with Raji [3] (GSI 1 μM, 3 h after GSI); 735 with Raji [3] (GSI 1 μM, 6 h after GSI); 1506 in the data set with Raji [3] (GSI 1 μM, 24 h after GSI). In addition, the “BCMA MFI” value in the data set on Raji [2] (GSI 0.01 nM) was determined as 142.5 ± 0.8; with Raji [2] (GSI 0.10 nM), 147.5 ± 20.6; with Raji [2] (GSI 1.00 nM), 398 ± 34; in the data set with Raji [2] (GSI 2.50 nM) it was 469 ± 31.2; in the data set on Raji [2] (GSI 5.00 nM), 484 ± 43.9; with Raji [2] (GSI 10.00 nM), 515.5 ± 47.4. The “BCMA MFI” value with Raji [2] (GSI 25.00 nM) is on record as 532 ± 42.5; in the data set with Raji [2] (GSI 50.00 nM), 535 ± 65.1; with Raji [2] (GSI 100.00 nM), 498.5 ± 20.6; with Raji [2] (GSI 500.00 nM), 568.5 ± 50.3; in the data set on Raji [2] (GSI 1000.00 nM), 534.5 ± 67.2.

The record behind these values is patent publication US20230192878A1, “METHODS, THERAPIES AND USES FOR TREATING CANCER” (PFIZER INC., priority 2020, published 2023).
